The record followed here is patent US20230150974A1 (Foghorn Therapeutics Inc., priority 2020, published 2023).

Experiment [1] concerns the target T1, HiBit-BRG1 (Homo sapiens, UniProt P51532).
T1 construct: expressed in transfected cells
The experiment in a line: HiBit-BRG1 cell-based degradation assay (Nano-Glo HiBiT Lytic Detection). To be noted: HeLa cells expressing HiBit-BRG1 and LgBit, 24 h; for DC50: read-out: BRG1 HiBit Degradation IC50; for Dmax: read-out: BRG1 HiBit Degradation Maximum (%). The gist of the method:
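Seed 5000 HeLa HiBit-BRG1/LgBit cells per well; treat 24 h; equilibrate 15 min at room temperature; add Nano-Glo HiBiT lytic reagent, shake 10 min, read luminescence. Percent degradation is scaled between DMSO and 2 μM reference degrader wells.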

In experiment [2] the target is T2, HiBiT-BRM (Homo sapiens, UniProt P51531).
T2 construct: expressed in transfected cells
As to the kind of experiment: HiBiT-BRM cell-based degradation assay (Nano-Glo HiBiT Lytic Detection). The note with it: HeLa cells expressing HiBiT-BRM, 24 h; for DC50: read-out: BRM HiBit Degradation IC50. The gist of the method:
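Luminescence from HiBiT–LgBiT complementation in lysates of a stable HiBiT-BRM HeLa line measured after 24 h compound exposure. Degradation expressed as percent relative to DMSO-treated cells and cells given 2 μM of a known BRM/BRG1 degrader.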
(In general: The HiBiT peptide binds its large partner to form an active luciferase.)

T1 sequence (P51532 whole entry): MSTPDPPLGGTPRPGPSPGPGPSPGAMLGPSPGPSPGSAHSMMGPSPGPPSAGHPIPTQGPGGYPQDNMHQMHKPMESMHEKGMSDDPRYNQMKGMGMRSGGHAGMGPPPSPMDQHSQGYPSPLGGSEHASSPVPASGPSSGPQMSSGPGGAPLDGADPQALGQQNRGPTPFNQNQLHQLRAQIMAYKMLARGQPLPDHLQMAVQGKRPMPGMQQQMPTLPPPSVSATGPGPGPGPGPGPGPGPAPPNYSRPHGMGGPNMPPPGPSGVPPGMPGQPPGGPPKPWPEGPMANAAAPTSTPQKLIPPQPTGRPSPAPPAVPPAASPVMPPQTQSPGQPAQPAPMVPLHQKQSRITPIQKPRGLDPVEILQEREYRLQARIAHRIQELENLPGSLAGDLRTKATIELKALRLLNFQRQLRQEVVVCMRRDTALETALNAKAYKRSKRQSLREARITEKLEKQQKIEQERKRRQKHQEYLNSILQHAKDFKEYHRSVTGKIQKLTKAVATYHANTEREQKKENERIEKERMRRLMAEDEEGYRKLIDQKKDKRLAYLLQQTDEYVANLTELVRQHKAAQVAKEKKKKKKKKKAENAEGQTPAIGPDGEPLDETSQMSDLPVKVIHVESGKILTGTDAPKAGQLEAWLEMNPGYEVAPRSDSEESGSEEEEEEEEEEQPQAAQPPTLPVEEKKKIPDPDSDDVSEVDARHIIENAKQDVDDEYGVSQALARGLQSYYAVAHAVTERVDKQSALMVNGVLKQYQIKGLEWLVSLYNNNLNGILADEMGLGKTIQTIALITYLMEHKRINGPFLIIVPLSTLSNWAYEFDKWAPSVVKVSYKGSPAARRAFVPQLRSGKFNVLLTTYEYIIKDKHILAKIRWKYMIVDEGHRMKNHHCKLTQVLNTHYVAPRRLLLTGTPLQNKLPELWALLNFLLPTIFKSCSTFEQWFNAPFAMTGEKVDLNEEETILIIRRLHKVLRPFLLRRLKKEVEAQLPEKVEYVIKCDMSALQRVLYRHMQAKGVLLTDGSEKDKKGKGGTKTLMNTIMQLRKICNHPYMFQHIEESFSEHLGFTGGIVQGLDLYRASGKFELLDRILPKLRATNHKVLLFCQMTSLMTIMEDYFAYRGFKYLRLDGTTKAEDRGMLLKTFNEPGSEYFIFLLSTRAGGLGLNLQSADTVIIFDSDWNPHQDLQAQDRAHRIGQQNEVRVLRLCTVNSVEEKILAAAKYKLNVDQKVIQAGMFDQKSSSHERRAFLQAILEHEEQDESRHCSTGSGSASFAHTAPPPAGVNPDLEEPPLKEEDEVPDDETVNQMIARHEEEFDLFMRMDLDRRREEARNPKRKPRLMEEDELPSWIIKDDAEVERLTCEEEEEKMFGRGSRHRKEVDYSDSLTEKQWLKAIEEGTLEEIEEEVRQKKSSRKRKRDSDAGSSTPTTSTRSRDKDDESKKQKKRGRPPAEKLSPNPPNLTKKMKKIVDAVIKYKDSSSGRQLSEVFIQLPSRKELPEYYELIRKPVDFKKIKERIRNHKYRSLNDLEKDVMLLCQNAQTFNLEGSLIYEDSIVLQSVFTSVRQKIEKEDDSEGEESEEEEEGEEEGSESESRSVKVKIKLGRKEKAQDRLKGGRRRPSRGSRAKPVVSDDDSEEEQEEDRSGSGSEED
T2 sequence (P51531 whole entry): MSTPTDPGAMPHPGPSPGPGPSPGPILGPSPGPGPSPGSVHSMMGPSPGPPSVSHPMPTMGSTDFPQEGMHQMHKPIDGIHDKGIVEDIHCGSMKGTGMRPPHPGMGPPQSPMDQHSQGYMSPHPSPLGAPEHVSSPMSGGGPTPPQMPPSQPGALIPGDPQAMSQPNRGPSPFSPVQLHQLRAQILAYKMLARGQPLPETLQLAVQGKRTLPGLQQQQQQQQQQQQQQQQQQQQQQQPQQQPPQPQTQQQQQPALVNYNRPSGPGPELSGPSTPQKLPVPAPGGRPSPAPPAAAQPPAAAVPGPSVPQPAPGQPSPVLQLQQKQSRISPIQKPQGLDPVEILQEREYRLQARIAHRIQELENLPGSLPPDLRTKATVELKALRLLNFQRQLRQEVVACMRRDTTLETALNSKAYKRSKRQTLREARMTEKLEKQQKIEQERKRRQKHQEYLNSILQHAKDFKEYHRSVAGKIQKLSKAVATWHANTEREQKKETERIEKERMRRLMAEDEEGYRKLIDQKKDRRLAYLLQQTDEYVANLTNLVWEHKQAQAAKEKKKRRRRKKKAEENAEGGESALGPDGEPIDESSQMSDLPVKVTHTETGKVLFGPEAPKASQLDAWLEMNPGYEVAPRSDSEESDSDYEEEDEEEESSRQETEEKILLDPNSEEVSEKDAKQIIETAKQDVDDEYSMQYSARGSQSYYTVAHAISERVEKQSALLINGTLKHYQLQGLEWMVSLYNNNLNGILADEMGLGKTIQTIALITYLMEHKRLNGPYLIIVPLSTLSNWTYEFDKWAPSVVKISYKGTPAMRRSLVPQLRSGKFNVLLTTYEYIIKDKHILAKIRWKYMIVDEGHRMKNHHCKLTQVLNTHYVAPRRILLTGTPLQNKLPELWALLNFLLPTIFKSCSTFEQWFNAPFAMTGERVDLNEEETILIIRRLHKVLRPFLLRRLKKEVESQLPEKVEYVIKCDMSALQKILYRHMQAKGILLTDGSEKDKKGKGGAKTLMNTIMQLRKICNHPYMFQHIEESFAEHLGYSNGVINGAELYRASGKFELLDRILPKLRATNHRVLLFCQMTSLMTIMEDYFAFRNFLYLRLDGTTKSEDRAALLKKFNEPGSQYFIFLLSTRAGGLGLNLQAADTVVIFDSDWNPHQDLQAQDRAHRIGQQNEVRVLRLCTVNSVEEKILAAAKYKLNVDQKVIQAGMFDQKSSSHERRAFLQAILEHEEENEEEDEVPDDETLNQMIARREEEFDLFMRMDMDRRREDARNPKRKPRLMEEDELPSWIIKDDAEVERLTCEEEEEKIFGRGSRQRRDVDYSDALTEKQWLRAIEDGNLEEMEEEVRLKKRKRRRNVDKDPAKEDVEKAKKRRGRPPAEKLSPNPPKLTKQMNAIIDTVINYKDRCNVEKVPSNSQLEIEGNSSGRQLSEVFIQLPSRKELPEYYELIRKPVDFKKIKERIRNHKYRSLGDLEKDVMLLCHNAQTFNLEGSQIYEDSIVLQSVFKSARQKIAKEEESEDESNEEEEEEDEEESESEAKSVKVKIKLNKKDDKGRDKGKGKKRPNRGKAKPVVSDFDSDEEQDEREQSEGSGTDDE

Take `Cc1ncsc1-c1ccc([C@H](C)NC(=O)[C@@H]2C[C@@H](O)CN2C(=O)[C@@H](c2cc(OCCN3CC4CN(C(=O)c5ccc(CCOc6cc(-c7ccccc7O)nnc6N)cc5)C4C3)no2)C(C)C)cc1` (stereo partly drawn) [Compound 240, (2S,4R)-1-((2R)-2-(3-(2-(6-(4-(2-((3-amino-6-(2-hydroxyphenyl)pyridazin-4-yl)oxy)ethyl)benzoyl)-3,6-diazabicyclo[3.2.0]heptan-3-yl)ethoxy)isoxazol-5-yl)-3-methylbutanoyl)-4-hydroxy-N-((S)-1-(4-(4-methylthiazol-5-yl)phenyl)ethyl)pyrrolidine-2-carboxamide]: in experiment [1], the DC50 was over 0.1 µM and the Dmax was over 75%. For the same molecule, in experiment [2], the “BRM HiBit Degradation Maximum (%)” value is “A (“A” indicates maximum degradation ≥75%)” and the DC50 was over 0.1 µM.

Regarding `Nc1nnc(-c2ccccc2O)cc1N1CCN(CC(=O)NC2CCN(CCOc3ccc4c(c3)C(=O)N(C3CCC(=O)NC3=O)C4=O)CC2)CC1` (centres unmarked) [Compound 82, 2-[4-[3-amino-6-(2-hydroxyphenyl)pyridazin-4-yl]piperazin-1-yl]-N-[1-(2-[[2-(2,6-dioxopiperidin-3-yl)-1,3-dioxoisoindol-5-yl]oxy]ethyl)piperidin-4-yl]acetamide], in experiment [1], the DC50 is over 1 µM and the Dmax was under 50%. Further, in experiment [2], the “BRM HiBit Degradation Maximum (%)” value is recorded as “C (“C” indicates maximum degradation <50%)” and the DC50 is over 1 µM.

Consider `Cc1ncsc1-c1ccc(CNC(=O)[C@@H]2C[C@@H](O)CN2C(=O)[C@@H](NC(=O)CCCCCCCCCCCC(=O)NCc2ccc(CCOc3cc(-c4ccccc4O)nnc3N)cc2)C(C)(C)C)cc1` [Compound 31, N1-(4-(2-((3-amino-6-(2-hydroxyphenyl)pyridazin-4-yl)oxy)ethyl)benzyl)-N13-((S)-1-((2S,4R)-4-hydroxy-2-((4-(4-methylthiazol-5-yl)benzyl)carbamoyl)pyrrolidin-1-yl)-3,3-dimethyl-1-oxobutan-2-yl)tridecanediamide], for which, in experiment [1], the DC50 is over 1 µM and the Dmax is under 50%. Further, in experiment [2], the “BRM HiBit Degradation Maximum (%)” value is “B (“B” indicates maximum degradation ≥50%)” and the DC50 was over 0.01 µM.

As for `CN(Cc1ccc(CCOc2cc(-c3ccccc3O)nnc2N)cc1)C(=O)CCCCOc1cccc2c1C(=O)N(C1CCC(=O)NC1=O)C2=O` (centres unmarked) [Compound 10, N-(4-(2-((3-amino-6-(2-hydroxyphenyl)pyridazin-4-yl)oxy)ethyl)benzyl)-5-((2-(2,6-dioxopiperidin-3-yl)-1,3-dioxoisoindolin-4-yl)oxy)-N-methylpentanamide], in experiment [1], the DC50 was over 1 µM and the Dmax is under 50%. Further, in experiment [2], the “BRM HiBit Degradation Maximum (%)” value was “C (“C” indicates maximum degradation <50%)” and the DC50 was over 1 µM.

With `Nc1nnc(-c2ccccc2O)cc1OCCc1ccc(C(=O)NCCOCCOCCNc2cccc3c2C(=O)N(C2CCC(=O)NC2=O)C3=O)cc1` (centres unmarked) [Compound 43, 4-(2-[[3-amino-6-(2-hydroxyphenyl)pyridazin-4-yl]oxy]ethyl)-N-[2-[2-(2-[[2-(2,6-dioxopiperidin-3-yl)-1,3-dioxoisoindol-4-yl]amino]ethoxy)ethoxy]ethyl]benzamide], in experiment [1], the DC50 is over 1 µM and the Dmax was under 50%. Besides, in experiment [2], the “BRM HiBit Degradation Maximum (%)” value is reported as “C (“C” indicates maximum degradation <50%)” and the DC50 was over 1 µM.

On to `Cc1ncsc1-c1ccc([C@H](C)NC(=O)[C@@H]2C[C@@H](O)CN2C(=O)[C@@H](c2cc(OCCNCCCCCCCCCCC(=O)NCc3ccc(CCOc4cc(-c5ccccc5O)nnc4N)cc3)no2)C(C)C)cc1` [Compound 212, (2S,4R)-1-[(2R)-2-[3-(2-[[10-([[4-(2-[[3-amino-6-(2-hydroxyphenyl)pyridazin-4-yl]oxy]ethyl)phenyl]methyl]carbamoyl)decyl]amino]ethoxy)-1,2-oxazol-5-yl]-3-methylbutanoyl]-4-hydroxy-N-[(1S)-1-[4-(4-methyl-1,3-thiazol-5-yl)phenyl]ethyl]pyrrolidine-2-carboxamide], for which, in experiment [1], the DC50 was over 1 µM and the Dmax is under 50%. Further, in experiment [2], the “BRM HiBit Degradation Maximum (%)” value is given as “A (“A” indicates maximum degradation ≥75%)” and the DC50 is over 0.01 µM.

As for `Cc1ncsc1-c1ccc([C@H](C)NC(=O)[C@@H]2C[C@@H](O)CN2C(=O)[C@@H](NC(=O)CCN2CCC3(CCN(CCC(=O)NCc4ccc(CCOc5cc(-c6ccccc6O)nnc5N)cc4)CC3)CC2)C(C)(C)C)cc1` [Compound 250, (2S,4R)-1-((S)-2-(3-(9-(3-((4-(2-((3-amino-6-(2-hydroxyphenyl)pyridazin-4-yl)oxy)ethyl)benzyl)amino)-3-oxopropyl)-3,9-diazaspiro[5.5]undecan-3-yl)propanamido)-3,3-dimethylbutanoyl)-4-hydroxy-N-((S)-1-(4-(4-methylthiazol-5-yl)phenyl)ethyl)pyrrolidine-2-carboxamide], in experiment [1], the DC50 was over 1 µM and the Dmax was under 50%. In experiment [2], the “BRM HiBit Degradation Maximum (%)” value is “B (“B” indicates maximum degradation ≥50%)” and the DC50 was over 1 µM.

Consider `Cc1ncsc1-c1ccc([C@H](C)NC(=O)[C@@H]2C[C@@H](O)CN2C(=O)[C@@H](NC(=O)CCCCCCCCCCCCC(=O)NCc2ccc(CCOc3cc(-c4ccccc4O)nnc3N)cc2)C(C)(C)C)cc1` [Compound 248, N1-(4-(2-((3-amino-6-(2-hydroxyphenyl)pyridazin-4-yl)oxy)ethyl)benzyl)-N14-((S)-1-((2S,4R)-4-hydroxy-2-(((S)-1-(4-(4-methylthiazol-5-yl)phenyl)ethyl)carbamoyl)pyrrolidin-1-yl)-3,3-dimethyl-1-oxobutan-2-yl)tetradecanediamide], for which, in experiment [1], the DC50 was over 1 µM and the Dmax is under 50%. In experiment [2], the “BRM HiBit Degradation Maximum (%)” value is on record as “A (“A” indicates maximum degradation ≥75%)” and the DC50 is over 0.01 µM.

As for `Nc1nnc(-c2ccccc2O)cc1N1CCN(CCNC(=O)CCCOc2cccc3c2C(=O)N(C2CCC(=O)NC2=O)C3=O)CC1` (centres unmarked) [Compound 84, N-(2-(4-(3-amino-6-(2-hydroxyphenyl)pyridazin-4-yl)piperazin-1-yl)ethyl)-4-((2-(2,6-dioxopiperidin-3-yl)-1,3-dioxoisoindolin-4-yl)oxy)butanamide], in experiment [1], the DC50 is over 1 µM and the Dmax was under 50%. In experiment [2], the “BRM HiBit Degradation Maximum (%)” value is reported as “C (“C” indicates maximum degradation <50%)” and the DC50 was over 1 µM.

`Cc1ncsc1-c1ccc(CNC(=O)[C@@H]2C[C@@H](O)CN2C(=O)[C@@H](NC(=O)CCCCCCCCCNCc2ccc(CCOc3cc(-c4ccccc4O)nnc3N)cc2)C(C)(C)C)cc1` [Compound 26, (2S,4R)-1-((S)-2-(10-((4-(2-((3-amino-6-(2-hydroxyphenyl)pyridazin-4-yl)oxy)ethyl)benzyl)amino)decanamido)-3,3-dimethylbutanoyl)-4-hydroxy-N-(4-(4-methylthiazol-5-yl)benzyl)pyrrolidine-2-carboxamide]: in experiment [1], the DC50 was over 1 µM and the Dmax was under 50%. In experiment [2], the “BRM HiBit Degradation Maximum (%)” value was “A (“A” indicates maximum degradation ≥75%)” and the DC50 was over 0.1 µM.

For the molecule `Nc1nnc(-c2ccccc2O)cc1N1CCN(CCNC(=O)CCOCCOCCNc2cccc3c2C(=O)N(C2CCC(=O)NC2=O)C3=O)CC1` (centres unmarked) [Compound 93], in experiment [1], the DC50 was over 1 µM and the Dmax was under 50%. Besides, in experiment [2], the “BRM HiBit Degradation Maximum (%)” value is listed as “C (“C” indicates maximum degradation <50%)” and the DC50 is over 1 µM.
